Laboratory results taken from ChEMBL document CHEMBL1201862, “PubChem BioAssay data set” (2004).
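Cells were grown in 96-well plates and exposed to each compound for 48 hours at five concentrations; endpoints were interpolated linearly between bracketing concentrations, or set to the highest concentration if not reached. Here, GI50 denotes the concentration required for 50% inhibition of growth.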 The source made the active and inactive calls. Rule as the data show it: active = GI50 up to about 1.1 µM and inactive = higher.

What was measured:
Test in all cases: growth of human tumour cells (NCI), 48 h
[1] = system: SNB-19
[2] = system: M14
[3] = system: HOP-62
[4] = system: SK-MEL-5
[5] = system: COLO 205
[6] = system: NCI-H23
[7] = system: OVCAR-4
[8] = system: EKVX
[9] = system: MOLT-4
[10] = system: MCF7
[11] = system: U-251
[12] = system: SK-MEL-2
[13] = system: HCT-116
[14] = system: 786-0
[15] = system: SK-MEL-28
[16] = system: SN12C
[17] = system: IGROV-1
[18] = system: HOP-92
[19] = system: RPMI-8226
[20] = system: KM12

Measured: GI50

NS(=O)(=O)c1ccc(NNc2c3ccccc3nc3c(C(=O)Nc4ccc(S(=O)(=O)Nc5ncccn5)cc4)cccc23)cc1
inactive: [1] > 25 µM | [2] > 25 µM | [3] > 25 µM | [4] > 25 µM | [5] > 25 µM | [6] > 25 µM | [7] > 25 µM | [8] > 25 µM | [9] > 25 µM | [10] > 25 µM | [11] > 25 µM | [12] > 25 µM | [13] > 25 µM | [14] > 25 µM | [15] 10.1 µM | [16] > 25 µM | [17] > 25 µM | [18] > 25 µM | [19] > 25 µM | [20] > 25 µM
